Assay results from patent US12030878B2 (BRISTOL-MYERS SQUIBB COMPANY, priority 2017, dated 2024).
pIC50: −log10 of the molar value.

Tests used:
Type in all cases: cell-based
human TLR7 = target: T1, human TLR7 (Homo sapiens, UniProt Q9NYK1); experiment: TLR7 inhibition reporter assay (HEK-Blue SEAP); conditions: HEK-Blue cells overexpressing human TLR7, stimulated with gardiquimod 7.5 μM, 22 hour incubation
T1 construct: host or cells: HEK-Blue cells
T1 sequence (Q9NYK1 27-1049): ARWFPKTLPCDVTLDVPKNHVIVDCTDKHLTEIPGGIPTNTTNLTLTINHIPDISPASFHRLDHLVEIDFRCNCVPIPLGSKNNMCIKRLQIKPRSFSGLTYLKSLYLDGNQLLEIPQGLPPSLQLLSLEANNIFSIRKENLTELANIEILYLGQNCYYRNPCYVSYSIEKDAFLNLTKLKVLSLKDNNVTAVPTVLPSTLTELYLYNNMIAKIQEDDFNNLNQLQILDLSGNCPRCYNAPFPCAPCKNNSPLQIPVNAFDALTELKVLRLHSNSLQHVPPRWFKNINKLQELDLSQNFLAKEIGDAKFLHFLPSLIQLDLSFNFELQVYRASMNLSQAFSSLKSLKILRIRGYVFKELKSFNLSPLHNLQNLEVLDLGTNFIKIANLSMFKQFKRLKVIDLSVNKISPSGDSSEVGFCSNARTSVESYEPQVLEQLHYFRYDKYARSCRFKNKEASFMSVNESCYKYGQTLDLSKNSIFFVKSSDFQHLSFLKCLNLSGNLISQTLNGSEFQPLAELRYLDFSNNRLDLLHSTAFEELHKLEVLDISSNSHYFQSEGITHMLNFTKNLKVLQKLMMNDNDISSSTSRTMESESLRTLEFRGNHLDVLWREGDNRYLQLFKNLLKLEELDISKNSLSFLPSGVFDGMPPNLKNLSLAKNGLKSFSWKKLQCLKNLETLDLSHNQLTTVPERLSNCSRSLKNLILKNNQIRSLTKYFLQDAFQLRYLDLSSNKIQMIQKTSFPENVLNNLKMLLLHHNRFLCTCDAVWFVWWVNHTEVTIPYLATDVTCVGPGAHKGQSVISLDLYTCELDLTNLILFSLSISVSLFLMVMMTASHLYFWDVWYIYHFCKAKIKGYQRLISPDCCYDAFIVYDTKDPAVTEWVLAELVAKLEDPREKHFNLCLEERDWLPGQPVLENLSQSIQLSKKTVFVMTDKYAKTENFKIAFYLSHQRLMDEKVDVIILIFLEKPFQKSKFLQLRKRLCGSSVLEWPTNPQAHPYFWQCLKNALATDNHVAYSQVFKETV
Outline: (§1)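 HEK-Blue cells with NF-κB/AP-1-driven SEAP reporter; compounds 0.05 nM-50 μM, 30 min pre-treatment at room temperature, then agonist: gardiquimod 7.5 μM (TLR7), R848 15.9 μM (TLR8) or ODN2006 5 nM (TLR9). SEAP read after 22 h at 37 °C; percent inhibition versus agonist-plus-DMSO and reference-inhibitor wells.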

human TLR8 = target: T2, human TLR8 (Homo sapiens, UniProt Q9NR97); experiment: TLR8 inhibition reporter assay (HEK-Blue SEAP); conditions: HEK-Blue cells overexpressing human TLR8, stimulated with R848 15.9 μM, 22 hour incubation
T2 construct: host or cells: HEK-Blue cells
T2 sequence (Q9NR97 27-1041): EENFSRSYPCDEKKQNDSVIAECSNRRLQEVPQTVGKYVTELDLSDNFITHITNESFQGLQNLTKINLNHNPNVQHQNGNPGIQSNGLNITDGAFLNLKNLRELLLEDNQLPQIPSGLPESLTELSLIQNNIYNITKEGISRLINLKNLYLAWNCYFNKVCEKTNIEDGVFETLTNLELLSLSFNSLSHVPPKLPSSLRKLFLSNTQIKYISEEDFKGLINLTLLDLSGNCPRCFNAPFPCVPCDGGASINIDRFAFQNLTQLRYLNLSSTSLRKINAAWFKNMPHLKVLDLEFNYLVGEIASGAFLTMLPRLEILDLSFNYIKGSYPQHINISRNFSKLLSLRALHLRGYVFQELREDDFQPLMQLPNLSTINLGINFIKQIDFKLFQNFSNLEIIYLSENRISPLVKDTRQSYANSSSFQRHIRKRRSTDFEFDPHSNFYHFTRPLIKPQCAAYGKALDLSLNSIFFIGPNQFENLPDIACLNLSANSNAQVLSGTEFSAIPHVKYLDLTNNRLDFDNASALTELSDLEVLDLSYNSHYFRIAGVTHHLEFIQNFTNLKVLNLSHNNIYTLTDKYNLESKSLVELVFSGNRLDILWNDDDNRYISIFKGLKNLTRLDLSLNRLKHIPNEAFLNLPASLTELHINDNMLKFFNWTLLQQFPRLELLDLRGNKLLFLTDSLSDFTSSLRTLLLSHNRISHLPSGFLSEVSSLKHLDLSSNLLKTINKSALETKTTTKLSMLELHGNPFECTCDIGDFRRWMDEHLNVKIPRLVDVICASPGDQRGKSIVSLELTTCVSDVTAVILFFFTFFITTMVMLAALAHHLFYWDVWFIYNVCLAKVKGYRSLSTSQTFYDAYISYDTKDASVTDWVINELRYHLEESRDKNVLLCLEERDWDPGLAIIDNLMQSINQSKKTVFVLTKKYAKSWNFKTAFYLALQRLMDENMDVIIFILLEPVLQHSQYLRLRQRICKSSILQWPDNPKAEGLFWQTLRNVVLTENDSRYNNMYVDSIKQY
Outline: as §1

human TLR9 = target: T3, human TLR9 (Homo sapiens, UniProt Q9NR96); experiment: TLR9 inhibition reporter assay (HEK-Blue SEAP); conditions: HEK-Blue cells overexpressing human TLR9, stimulated with ODN2006 5 nM, 22 hour incubation
T3 construct: host or cells: HEK-Blue cells
T3 sequence (Q9NR96 26-1032): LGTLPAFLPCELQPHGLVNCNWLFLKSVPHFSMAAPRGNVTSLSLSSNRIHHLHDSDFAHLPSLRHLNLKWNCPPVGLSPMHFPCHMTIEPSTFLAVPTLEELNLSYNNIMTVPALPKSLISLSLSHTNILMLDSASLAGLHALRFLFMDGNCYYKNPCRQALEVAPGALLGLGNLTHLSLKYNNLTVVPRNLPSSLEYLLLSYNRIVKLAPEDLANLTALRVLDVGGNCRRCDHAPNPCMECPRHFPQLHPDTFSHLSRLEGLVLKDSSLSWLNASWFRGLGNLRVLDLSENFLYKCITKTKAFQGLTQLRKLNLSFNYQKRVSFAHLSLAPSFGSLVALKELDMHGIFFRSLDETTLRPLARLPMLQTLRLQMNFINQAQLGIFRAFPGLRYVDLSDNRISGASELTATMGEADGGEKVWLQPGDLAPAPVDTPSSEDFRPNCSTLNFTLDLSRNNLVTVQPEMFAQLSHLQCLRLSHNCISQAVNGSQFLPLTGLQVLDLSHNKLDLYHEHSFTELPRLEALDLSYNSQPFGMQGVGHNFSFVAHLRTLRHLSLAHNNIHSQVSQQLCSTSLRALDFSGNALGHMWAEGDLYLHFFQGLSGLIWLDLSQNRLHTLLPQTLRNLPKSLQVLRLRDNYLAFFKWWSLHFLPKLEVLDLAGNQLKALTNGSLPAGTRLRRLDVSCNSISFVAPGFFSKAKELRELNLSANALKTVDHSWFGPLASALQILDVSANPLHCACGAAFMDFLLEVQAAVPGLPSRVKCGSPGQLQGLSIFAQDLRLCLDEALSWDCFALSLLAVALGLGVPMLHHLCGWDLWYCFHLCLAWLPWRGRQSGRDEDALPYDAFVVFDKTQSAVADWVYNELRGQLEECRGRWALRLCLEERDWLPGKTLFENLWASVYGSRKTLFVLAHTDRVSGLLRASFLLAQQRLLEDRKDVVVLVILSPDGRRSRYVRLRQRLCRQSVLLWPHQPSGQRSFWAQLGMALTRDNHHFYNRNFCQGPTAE
Outline: as §1

pIC50 (human TLR7)	pIC50 (human TLR8)	pIC50 (human TLR9)	Compound
9.00	8.22	5.89	CCCN1CCC(COc2ccc3[nH]c(-c4cn5cnnc5c(C)c4C)c(C(C)C)c3c2)CC1 [Example 62, 6-(3-isopropyl-5-((1-propylpiperidin-4-yl)methoxy)-1H-indol-2-yl)-7,8-dimethyl-[1,2,4]triazolo[4,3-a]pyridine]
7.99	8.05	< 4.30	CNC(=O)CN1CCC(Oc2ccc3[nH]c(-c4cc(C)c(=O)n(C)c4)c(C(C)C)c3c2)CC1 [Example 112, 2-(4-((2-(1,5-dimethyl-6-oxo-1,6-dihydropyridin-3-yl)-3-isopropyl-1H-indol-5-yl)oxy)piperidin-1-yl)-N-methylacetamide]
6.55	7.61	5.72	COc1ccc(-c2[nH]c3ccc(OCC(=O)N4CCC(OC5CCNCC5)CC4)cc3c2C(C)C)cc1OC [Example 138, 2-((2-(3,4-dimethoxyphenyl)-3-isopropyl-1H-indol-5-yl)oxy)-1-(4-(piperidin-4-yloxy)piperidin-1-yl)ethan-1-one]
7.56	7.48	5.89	Cc1cc(-c2[nH]c3ccc(OC4CCCNC4)cc3c2C(C)C)ccn1 (stereo not drawn) [Example 177, 3-isopropyl-2-(2-methylpyridin-4-yl)-5-(piperidin-3-yloxy)-1H-indole]
7.48	8.24	4.71	Cc1c(-c2[nH]c3ccc(OC4CCN(CC(=O)N(C)C)CC4)cc3c2C(C)C)cn(C)c(=O)c1C [Example 87, 2-(4-((3-isopropyl-2-(1,4,5-trimethyl-6-oxo-1,6-dihydropyridin-3-yl)-1H-indol-5-yl)oxy)piperidin-1-yl)-N,N-dimethylacetamide]
9.52	8.30	5.59	Cc1cc(-c2[nH]c3ccc(OCC4CCN(C(=O)CN(C)C)CC4)cc3c2C(C)C)cn2ncnc12 [Example 102, 2-(dimethylamino)-1-(4-(((3-isopropyl-2-(8-methyl-[1,2,4]triazolo[1,5-a]pyridin-6-yl)-1H-indol-5-yl)oxy)methyl)piperidin-1-yl)ethan-1-one]
6.21	7.08	5.61	COc1ccc(-c2[nH]c3ccc(OCC(=O)NC4CCN(C(C)C)CC4)cc3c2C(C)C)cc1OC [Example 139, 2-((2-(3,4-dimethoxyphenyl)-3-isopropyl-1H-indol-5-yl)oxy)-N-(1-isopropylpiperidin-4-yl)acetamide]
8.18	7.86	5.45	Cc1cc(-c2[nH]c3ccc(O[C@H]4CCCNC4)cc3c2C(C)C)cn(C)c1=O [Example 8, (S)-5-(3-isopropyl-5-(piperidin-3-yloxy)-1H-indol-2-yl)-1,3-dimethylpyridin-2(1H)-one]
9.70	9.70	5.98	CCCN1CCC(Oc2ccc3[nH]c(-c4cc(OC)c5ncnn5c4)c(C(C)C)c3c2)CC1 [Example 67, 6-(3-isopropyl-5-((1-propylpiperidin-4-yl)oxy)-1H-indol-2-yl)-8-methoxy-[1,2,4]triazolo[1,5-a]pyridine]
7.85	8.17	4.33	CNC(=O)CN1CCC(COc2ccc3[nH]c(-c4cc(C)c(=O)n(C)c4)c(C(C)C)c3c2)CC1 [Example 111, 2-(4-(((2-(1,5-dimethyl-6-oxo-1,6-dihydropyridin-3-yl)-3-isopropyl-1H-indol-5-yl)oxy)methyl)piperidin-1-yl)-N-methylacetamide]
7.58	7.71	4.71	Cc1c(-c2[nH]c3ccc(OC4CCN(C5COC5)CC4)cc3c2C(C)C)cn2cnnc2c1C [Example 56, 6-(3-isopropyl-5-((1-(oxetan-3-yl)piperidin-4-yl)oxy)-1H-indol-2-yl)-7,8-dimethyl-[1,2,4]triazolo[4,3-a]pyridine]
7.96	8.96	5.20	Cc1cc(-c2[nH]c3ccc(OC4CCN(CCCC(F)(F)F)CC4)cc3c2C(C)C)cn(C)c1=O [Example 78, 5-(3-isopropyl-5-((1-(4,4,4-trifluorobutyl)piperidin-4-yl)oxy)-1H-indol-2-yl)-1,3-dimethylpyridin-2(1H)-one]
9.05	9.00	5.79	Cc1cc(-c2[nH]c3ccc(OC4CCN(C)CC4)cc3c2C(C)C)cn2ncnc12 [Example 32, 6-(3-isopropyl-5-((1-methylpiperidin-4-yl)oxy)-1H-indol-2-yl)-8-methyl-[1,2,4]triazolo[1,5-a]pyridine]

Compound	pIC50 (human TLR7)	pIC50 (human TLR8)	pIC50 (human TLR9)
COc1ccc(-c2[nH]c3ccc(OCC(=O)N(C)C4CN5CCC4CC5)cc3c2C(C)C)cc1OC (stereo not drawn) [Example 121, 2-((2-(3,4-dimethoxyphenyl)-3-isopropyl-1H-indol-5-yl)oxy)-N-methyl-N-((1s,4s)-quinuclidin-3-yl)acetamide]	7.57	7.24	5.45
